This is an account of results in patent publication US20230257374A1, “NOVEL KRAS G12C PROTEIN INHIBITOR, PREPARATION METHOD THEREFOR, AND USE THEREOF” (INNOVENT BIOLOGICS (SUZHOU) CO., LTD., priority 2019, published 2023).

Broadly, the IC50 is the concentration needed to halve the response being measured.

The target of the assay is T1, KRAS G12C protein (Homo sapiens, UniProt P01116, G12C).
T1 construct: H358 cells (ATCC, CRL-5807) expressing KRAS G12C protein; host or cells: H358 (NCI-H358) cells
T1 sequence (P01116 1-188 isoform P01116-2 G12C): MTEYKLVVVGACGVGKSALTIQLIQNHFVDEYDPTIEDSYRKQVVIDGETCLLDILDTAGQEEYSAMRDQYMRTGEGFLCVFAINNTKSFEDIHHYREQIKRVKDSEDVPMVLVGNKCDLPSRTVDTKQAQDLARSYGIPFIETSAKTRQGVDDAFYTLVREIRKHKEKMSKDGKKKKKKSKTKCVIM
As to the kind of experiment: ERK protein phosphorylation assay (p-ERK) in H358 cells. The conditions noted are these: H358 cells expressing KRAS G12C protein, 3 h incubation with compound; read-out: IC50, inhibiting phosphorylation of KRAS G12C protein-mediated downstream signaling (p-ERK). Details: scale not given here. In kind it is cell-based. The procedure: The cells were cultured in a 5% CO2 cell incubator for 16 h. The serially diluted compound was added to the cell medium with Echo550 at a final DMSO concentration of 0.5%, and the incubation was continued for 3 h. Then 8% paraformaldehyde (Solarbio, P1112) was added at 40 μL/well, followed by incubation at room temperature for 20 min. After one washing with PBS, cold 100% methanol was added at 40 μL/well for permeabilization for 10 min. […] Washing with PBST was performed 3 times, with 2 min of incubation for each washing. […] Washing with PBST was performed 3 times, with 2 min of incubation for each washing. Finally, the cell culture plate was inverted and centrifuged at 1000 rpm for 1 min, after which fluorescence signals were read using Odyssey CLx.

Regarding `C=CC(=O)N1CCN(c2nc(OC[C@@H]3CCCN3C)nc3c2CCN(c2cccc4cccc([13CH3])c24)C3)C[C@@H]1CC#N` [Compound 10, 2-((S)-1-acryloyl-4-(7-(8-(methyl-^13C)naphthalen-1-yl)-2-(((S)-1-methylpyrrolidin-2-yl)methoxy)-5,6,7,8-tetrahydropyrido[3,4-d]pyrimidin-4-yl)piperazin-2-yl)acetonitrile], the half-maximal inhibitory concentration (IC50) was below 1000 nM.
The figure for `[2H]C([2H])([2H])C([2H])([2H])N1CCC[C@H]1COc1nc2c(c(N3CCN(C(=O)C=C)[C@@H](CC#N)C3)n1)CCN(c1cccc3cccc(C)c13)C2` [Compound 35, 2-((S)-1-acryloyl-4-(2-(((S)-1-(ethyl-d5)pyrrolidin-2-yl)methoxy)-7-(8-methylnaphthalen-1-yl)-5,6,7,8-tetrahydropyrido[3,4-d]pyrimidin-4-yl)piperazin-2-yl)acetonitrile] is below 1000 nM.
In the case of `[2H]C([2H])([2H])c1cccc2cccc(N3CCc4c(nc(OC[C@@H]5CCCN5C([2H])([2H])[2H])nc4N4CCN(C(=O)C=C)C[C@@H]4C)C3)c12` [Compound 24, 1-((S)-3-methyl-4-(7-(8-(methyl-d3)naphthalen-1-yl)-2-(((S)-1-(methyl-d3)pyrrolidin-2-yl)methoxy)-5,6,7,8-tetrahydropyrido[3,4-d]pyrimidin-4-yl)piperazin-1-yl)-2-propen-1-one], the IC50 is below 1000 nM.
On to `C=C(F)C(=O)N1CCN(c2nc(OC[C@@H]3CCCN3C)nc3c2CCN(c2cccc4cccc([13CH3])c24)C3)C[C@@H]1CC#N` [Compound 11, 2-((S)-1-(2-fluoroacryloyl)-4-(7-(8-(methyl-^13C)naphthalen-1-yl)-2-(((S)-1-methylpyrrolidin-2-yl)methoxy)-5,6,7,8-tetrahydropyrido[3,4-d]pyrimidin-4-yl)piperazin-2-yl)acetonitrile], for which the IC50 is below 1000 nM.
In the case of `C=CC(=O)N1CCN(c2nc(OC[C@@H]3CCCN3C)nc3c2CCN(c2cncc4cccc([13CH3])c24)C3)C[C@@H]1CC#N` [Compound 15, 2-((S)-1-acryloyl-4-(7-(5-(methyl-^13C)isoquinolin-4-yl)-2-(((S)-1-methylpyrrolidin-2-yl)methoxy)-5,6,7,8-tetrahydropyrido[3,4-d]pyrimidin-4-yl)piperazin-2-yl)acetonitrile], the 50% inhibitory concentration (IC50) is below 1000 nM.
The value for `[2H]C([2H])([2H])c1cccc2cccc(N3CCc4c(nc(OC[C@@H]5CCCN5C)nc4N4CCN(C(=O)C(=C)F)C[C@@H]4C)C3)c12` [Compound 7, 2-fluoro-1-((S)-3-methyl-4-(7-(8-(methyl-d3)naphthalen-1-yl)-2-(((S)-1-methylpyrrolidin-2-yl)methoxy)-5,6,7,8-tetrahydropyrido[3,4-d]pyrimidin-4-yl)piperazin-1-yl)-2-propen-1-one] was below 1000 nM; that for `C=C(F)C(=O)N1CCN(c2nc(OC[C@@H]3CCCN3C)nc3c2CCN(c2cccc4cccc([14CH3])c24)C3)C[C@@H]1CC#N` [Compound 13, 2-((S)-1-(2-fluoroacryloyl)-4-(7-(8-(methyl-^14C)naphthalen-1-yl)-2-(((S)-1-methylpyrrolidin-2-yl)methoxy)-5,6,7,8-tetrahydropyrido[3,4-d]pyrimidin-4-yl)piperazin-2-yl)acetonitrile] was below 1000 nM; that for `C=CC(=O)N1CCN(c2nc(OC[C@@H]3CCCN3C)nc3c2CCN(c2cccc4cccc([14CH3])c24)C3)C[C@@H]1CC#N` [Compound 12, 2-((S)-1-acryloyl-4-(7-(8-(methyl-^14C)naphthalen-1-yl)-2-(((S)-1-methylpyrrolidin-2-yl)methoxy)-5,6,7,8-tetrahydropyrido[3,4-d]pyrimidin-4-yl)piperazin-2-yl)acetonitrile] was below 1000 nM.
